Assays:
[1] = tested on: CD8F1 spontaneous mammary adenocarcinoma; test: TAU/uridine rescue with 5-FU alone in tumor-bearing mice (Example 5); type: in vivo
Method: Sixty CD8F1 (BALB/C×[…]) female mice with first generation transplants of CD8F1 spontaneous mammary adenocarcinoma were treated with a weekly chemotherapy regimen which included a single dose of 5-FU (150 mg/kg) followed by various rescue strategies. The average tumor size was 157 mg at the start of the chemotherapy. The weekly chemotherapy course was completed three times.
In order to evaluate the various rescue therapies, the animals were divided into six groups of ten animals each as follows: […]

[2] = tested on: hematopoietic system (5-FU toxicity); test: Oral TAU vs uridine rescue from 5-FU hematologic toxicity (Example 1); type: in vivo, female Balb/C mice
Method: Forty-five female Balb/C mice (20 grams each) were given 5-fluorouracil (150 mg/kg, i.p.) at 12:00 noon on the initial day of the experiment. These animals were then divided into 5 groups: control (water, p.o.), oral uridine at 400 mg/kg/dose, oral uridine at 800 mg/kg/dose, parenteral (i.p.) uridine at 400 mg/kg/dose, and oral TAU at 500 mg/kg/dose.
Two hours after administration of 5-FU, the rescue treatments with uridine or triacetyluridine were begun. Groups received their designated treatment at 2:00 p.m., 4:00 p.m., and 6:00 p.m. on the day of 5-FU administration, and at 9 a.m., 11:00 a.m., 1:00 p.m., 3:00 p.m. and 5:00 p.m. on the following day. Each dose of uridine or TAU was administered in 0.2 ml of water by gavage or in 0.2 ml of saline by i.p. injection, as appropriate.
Mice were sacrificed by cervical dislocation; femurs were removed, and their cell contents were expelled for counting; spleens were also removed and weighed. […]

[3] = tested on: CD8F1 spontaneous breast tumors; test: TAU/uridine rescue with PALA-MTX-5-FU-LV combination chemotherapy in tumor-bearing mice (Example 6); type: in vivo, male CD8F1 mice; conditions: PALA-MTX-5-FU-LV weekly x3
Method: Forty male CD8F1 mice with transplanted CD8F1 spontaneous breast tumors (initial tumor weight of 155 mg) were treated weekly with the following regimen:
In order to evaluate and compare the efficacy of TAU and uridine, the mice were divided into four groups of ten animals each.
Saline, uridine, or TAU was administered every eight hours for a total of 5 treatments starting two hours after each weekly dose of 5-FU. This weekly regimen was repeated for three successive weeks. One week after the third course of chemotherapy regimen, mortality in each group was assessed and, where a sufficient number of animals survived, body weight and tumor weight were also measured.

[4] = tested on: hematopoietic system (5-FU toxicity); test: Acyl derivatives of uridine i.p. vs bone marrow toxicity of 5-FU (Example 3); type: in vivo, female Balb/C mice; conditions: for HCT % / Lym / Neut / RBC / WBC: eleven days after 5-FU
Method: Ninety-eight female Balb/C mice weighing approximately 20 grams each were given a one-time 150 mg/kg injection (i.p.) of 5-FU at 1 p.m. on the initial day of the study. […] All of these doses are equimolar, and were administered in a volume of 0.4 ml by i.p. injection. The groups were treated at 3:30, 6:00, and 8:30 p.m. on the initial day with their respective agents. […] On days seven and eleven following 5-FU administration, blood (0.2–0.3 ml) was collected from seven mice in each group by retro-orbital bleeding into EDTA for subsequent differential blood cell counting. Mice were sacrificed by cervical dislocation; their right femurs removed and the contents expelled for cell counting; and their spleens removed and weighed.

in vivo = test: in vivo; parameters: species or system mice; conditions: mouse, ip, 300 mg/kg
Method: Plasma uridine levels were determined in mice at various times (15 minutes, 30 minutes, 1 hour, and 2 hours) after administration of the acyl derivatives of uridine utilized in Example 3 for attenuation of toxicity caused by 5-FU. Groups of mice (n=3 per compound per time point) received intraperitoneal injections of uridine (300 mg/kg), triacetyluridine (TAU; 455 mg/kg/treatment), benzoyluridine (BU; 428 mg/kg/treatment), ethoxycarbonyluridine (ECU; 389 mg/kg/treatment), octanoyluridine (OU; 455 mg/kg/treatment), and valeryluridine (VU; 403 mg/kg/treatment). The doses of the acyl derivatives of uridine are the molar equivalent of 300 mg/kg uridine. At the appropriate time points, blood samples (200 μl) were taken from mice via the retro-orbital sinus and immediately centrifuged. 75 μl of the resulting plasma was deproteinized with 2 volumes of methanol followed by centrifugation. The supernatant was lyophilized and reconstituted with 50 mM potassium phosphate buffer, pH 6.0, and analyzed for uridine content by HPLC on a reverse phase (C18) column. Uridine was separated from other plasma components in 50 mM potassium phosphate buffer, pH 6.0, with a methanol gradient (2% to 35% over 15 minutes). Uridine was detected and quantified by UV absorbance at 260 nm.

[5] = 5-FU 150 mg/kg i.p. weekly x3 + oral uridine 5,000 or equimolar TAU 7,582 mg/kg
[6] = 7 days after 5-FU 150 mg/kg i.p., oral, Urd 400 or equimolar TAU 500 mg/kg/dose
[7] = 7 days after 5-FU, oral, Urd 400 or equimolar TAU 500 mg/kg/dose
[8] = 11 days after 5-FU, oral, Urd 400 or equimolar TAU 500 mg/kg/dose
[9] = oral uridine 4,000 or equimolar TAU 6,066 mg/kg every 8 h x5
[10] = day seven after 5-FU, TAU 455 mg/kg/treatment i.p.
[11] = 5-FU 150 mg/kg i.p. weekly x3 + uridine 3,500 mg/kg i.p.
[12] = 7 days after 5-FU, Urd 400 mg/kg/dose i.p.
[13] = 7 days after 5-FU, Urd 800 mg/kg/dose oral
[14] = 11 days after 5-FU, Urd 400 mg/kg/dose i.p.
[15] = 11 days after 5-FU, Urd 800 mg/kg/dose oral

SMILES: CC(=O)OC[C@H]1O[C@@H](n2ccc(=O)[nH]c2=O)[C@H](OC(C)=O)[C@@H]1OC(C)=O [TAU, triacetyluridine]
- Average Final Tumor Weight [1, 5]: 1,013 mg
- Mortality [1, 5]: 1/10
- WBC [2, 6]: 5.9 ± .4 K/μl
- Lymphocytes [2, 7]: 4.72 ± .36 K/μl
- Marrow cell counts [2, 7]: 3.0 ± .5 × 10^6 × 10^6/femur
- Neutrophils [2, 7]: 1.20 K/μl
- Platelets [2, 7]: 723 K/μl
- RBC [2, 7]: 8.27 ± .16 M/μl
- Spleen weight [2, 7]: 78 ± 3.5 mg
- Lymphocytes [2, 8]: 3.29 ± .36 K/μl
- Neutrophils [2, 8]: 1.89 K/μl
- Platelets [2, 8]: 1446 K/μl
- RBC [2, 8]: 8.05 M/μl
- Spleen weight [2, 8]: 143 ± 11 mg
- WBC [2, 8]: 5.4 ± .5 K/μl
- Average Final Tumor Weight ([3]; oral TAU 6,066 mg/kg): 162 mg
- Mortality [3, 9]: 1/10
- bone marrow cellularity [4, 10]: 4.50±77 ×10^3 per microliter
- increase of bone marrow cellularity over control values [4, 10]: 40%
- HCT % ([4]; equimolar i.p. doses): 35.01 ± 1.2%
- Lym ([4]; equimolar i.p. doses): 5.6 ± .4 K/μl
- Neut ([4]; equimolar i.p. doses): .55 ± K/μl
- RBC ([4]; equimolar i.p. doses): 7.35 ± .2 M/μl
- WBC ([4]; equimolar i.p. doses): 6.23 ± .55 K/μl

SMILES: O=c1ccn([C@@H]2O[C@H](CO)[C@@H](O)[C@H]2O)c(=O)[nH]1 [Urd, uridine]
- Average Final Tumor Weight [1, 5]: 896 mg
- Mortality [1, 5]: 0/10
- Average Final Tumor Weight [1, 11]: 1,604 mg
- Mortality [1, 11]: 1/10
- WBC [2, 6]: 4.4 ± .5 K/μl
- Lymphocytes [2, 12]: 3.80 ± .30 K/μl
- Marrow cell counts [2, 12]: 5.0 ± .7 × 10^6 × 10^6/femur
- Neutrophils [2, 12]: 0.83 ± .24 K/μl
- Platelets [2, 12]: 773 K/μl
- RBC [2, 12]: 8.06 ± .05 M/μl
- Spleen weight [2, 12]: 78 ± 5.5 mg
- WBC [2, 12]: 4.6 ± .4 K/μl
- Lymphocytes [2, 13]: 3.76 ± .27 K/μl
- Marrow cell counts [2, 13]: 2.9 ± .9 × 10^6 × 10^6/femur
- Neutrophils [2, 13]: 0.88 ± .22 K/μl
- Platelets [2, 13]: 646 K/μl
- RBC [2, 13]: 8.24 ± .26 M/μl
- Spleen weight [2, 13]: 74 ± 6.4 mg
- WBC [2, 13]: 4.6 ± .4 K/μl
- Lymphocytes [2, 7]: 3.01 ± .77 K/μl
- Marrow cell counts [2, 7]: 1.6 ± .2 × 10^6 × 10^6/femur
- Neutrophils [2, 7]: 0.48 ± .23 K/μl
- Platelets [2, 7]: 434 K/μl
- RBC [2, 7]: 7.66 ± .12 M/μl
- Spleen weight [2, 7]: 74 ± 2.4 mg
- Lymphocytes [2, 14]: 3.84 ± .38 K/μl
- Neutrophils [2, 14]: 1.20 ± .21 K/μl
- Platelets [2, 14]: 1706 K/μl
- RBC [2, 14]: 7.78 ± .22 M/μl
- Spleen weight [2, 14]: 104 ± 6 mg
- WBC [2, 14]: 5.1 ± .5 K/μl
- Lymphocytes [2, 15]: 4.07 ± .38 K/μl
- Neutrophils [2, 15]: 0.82 ± .19 K/μl
- Platelets [2, 15]: 2127 K/μl
- RBC [2, 15]: 7.33 ± .16 M/μl
- Spleen weight [2, 15]: 99 ± 6 mg
- WBC [2, 15]: 4.9 ± .4 K/μl
- Lymphocytes [2, 8]: 3.65 ± .27 K/μl
- Neutrophils [2, 8]: 0.84 ± .19 K/μl
- Platelets [2, 8]: 1940 K/μl
- RBC [2, 8]: 7.44 ± .14 M/μl
- Spleen weight [2, 8]: 103 ± 15 mg
- WBC [2, 8]: 4.6 ± .5 K/μl
- Mortality [3, 9]: 5/10
- Average Final Tumor Weight ([3]; uridine 3,500 mg/kg i.p.): 110 mg
- Mortality ([3]; uridine 3,500 mg/kg i.p. every 8 h x5): 0/10
- Spleen weights ([4]; day eleven after 5-FU, equimolar i.p. doses, in mg): 121.6±9.7
- Spleen weight ([4]; day seven after 5-FU 150 mg/kg i.p., i.p. doses equimolar to uridine 300 mg/kg/treatment): 80.4 ± 7.8 mg
- Platelet counts ([4]; day seven after 5-FU, equimolar i.p. doses): 785.3±57.5 ×10^3 per microliter
- HCT % ([4]; equimolar i.p. doses): 34.67 ± 0.9%
- Lym ([4]; equimolar i.p. doses): 4.6 ± .4 K/μl
- Neut ([4]; equimolar i.p. doses): .60 ± K/μl
- RBC ([4]; equimolar i.p. doses): 7.32 ± .2 M/μl
- WBC ([4]; equimolar i.p. doses): 5.20 ± .47 K/μl
- concentration at 15 min (in vivo): 911 µM
- concentration at 30 min (in vivo): 415 µM
- concentration at 1 h (in vivo): 185 µM
- concentration at 2 h (in vivo): 5.3 µM

— patent publication US7166581B1, “Treatment of chemotherapeutic agent and antiviral agent toxicity with acylated pyrimidine nucleosides” (Wellstat Therapeutics Corporation, priority 1987, dated 2007)
